Like-named read-outs stand apart in the source and are kept apart here.
Legend:
[1] = tested on: L. mexicana (MNYC/BZ/1962/M379) promastigote; assay: Anti-Leishmania activity, AB assay, axenic promastigotes; assay type: cell-based
Procedure: (§1) Promastigote stages of L. mexicana (MNYC/BZ/1962/M379), a generous gift from Vyacheslav Yurchenko, were cultured in M199 medium pH 7.4 supplemented with 2 μg/mL biopterin, 2 μg/mL hemin, 25 mM HEPES, 100 U/mL penicillin/streptomycin, and 10% heat-inactivated FBS (BioSera) pH 7.4 at 25 °C. The amastigotes were differentiated in vitro from late log/stationary promastigote cultures and cultivated in Schneider’s Drosophila Medium (SIM) at pH 5.5, supplemented with 1.5 μg/mL hemin, 100 U/mL penicillin/streptomycin, and 20% heat-inactivated FBS (BioSera) at pH 5.5, at 32 °C, and 5% CO2. Following a three-day period, the promastigotes underwent a transformation into amastigotes, which were then maintained in SIM.
(§2) To estimate the EC50, the AB assay, as previously described, was employed. The results are expressed as EC50, representing the dose of the compound required to inhibit cellular growth by 50%. Each EC50 value is the mean ± the standard error of the mean derived from at least three separate experiments, each performed in duplicate.

[2] = tested on: L. mexicana (MNYC/BZ/1962/M379) amastigote; assay: Anti-Leishmania activity, AB assay, axenic amastigotes; assay type: cell-based
Procedure: as §1, §2

[3] = tested on: Trypanosoma congolense IL3000; assay: Anti-trypanosomal activity, resazurin (AB assay), bloodstream form; assay type: cell-based; settings: 72 h, axenic, 48 h + 24 h resazurin, read-out: EC50 T. congolense
Procedure: (§3) The bloodstream forms of T. b. gambiense LiTat 1.3, T. b. brucei 427, and T. b. evansi AnTat 3/3 were grown in HMI-11 medium pH 7.3 supplemented with 36 mM sodium bicarbonate, 100 U/mL penicillin/streptomycin, and 10% fetal bovine serum at 37 °C and 5% CO2. The bloodstream form of Trypanosoma congolense IL3000 (generous gift from Liam Morrison) was cultured in TcBSF-1 medium pH 7.3 supplemented with 26 mM sodium bicarbonate, 25 mM HEPES, 5.5 mM glucose, 1 mM sodium pyruvate, 0.04 mM adenosine, 0.1 mM hypoxanthine, 0.02 mM thymidine, 0.02 mM bathocuproine, 2 mM L-glutamine, 0.2 mM 2-mercaptoethanol, 100 U/ml penicillin/streptomycin, and 20% goat serum New Zealand origin (Gibco) at 34 °C, 5% CO2. The assay for anti-trypanosomal activity was performed using the resazurin sodium salt dye (AB Assay) according to the published protocol in a 96-well plate format. Parasites at a number of 5 × 10^3 per well (T. b. brucei and T. b. gambiense) or 1 × 10^4 per well (T. b. evansi) were incubated with different drug concentrations (2-fold serial dilutions) in a volume of 200 μL of the medium. Medium with 1% DMSO (the highest concentration of the solvent used in the assay) was used to confirm no effect of the solvent on the cell growth. The plates were incubated for 48 h at the appropriate temperature. Then, 20 μL of resazurin sodium salt solution (0.125 mg/mL in 1× PBS, pH 7. 4) was added to each well, and the cells were incubated for another 24 h under the same conditions. The fluorescence signal was quantified using a Tecan Infinite M200 plate reader at excitation and emission wavelengths of 560 and 590 nm, respectively. The EC50 values were calculated using GraphPad Prism 9.5.1 by nonlinear regression with a variable slope. Each EC50 value is the mean ± standard error of the mean of three separate experiments performed in duplicate.

[4] = tested on: T. b. brucei 427; assay: as above; assay type: cell-based; settings: Trypanosoma brucei, 72 h, axenic, 48 h + 24 h resazurin
Procedure: as §3

[5] = tested on: RAT2 fibroblast cell line; assay: Cytotoxicity on proliferating cells, crystal violet assay, OD590; assay type: cell-based; settings: 24 h treatment, read-out: EC50 ± SEM RAT2
Procedure: (§4) MDCK and RAT cells were cultured in DMEM with 10% FBS at 37 °C in a 5% CO2 atmosphere as described previously. , To assess the toxic effects of the compounds on proliferating cells, cells were seeded in 24-well plates for 24 h to reach ∼15% confluence, and cells were treated in triplicate with increasing concentrations of the isolated compounds for an additional 24 h. Cells were washed with 1× PBS, fixed in staining solution (0.5% crystal violet, 20% methanol) for 10 min, and gently washed five times in 1× PBS. The fixed cells were then dissolved in lysis solution (0.1 M sodium citrate, 25% ethanol, pH 4.2) for 30 min, transferred to a 96-well plate in H2O, and the OD^590 was determined. EC50 values were determined using GraphPad Prism software and the dose–response fit equation. The EC50 values were determined from two independent experiments. Additionally, the impact of the isolated substances on the morphology of the HeLa adenocarcinoma cell line and primary human skin fibroblasts was examined by using fluorescence microscopy. Cells were cultured in DME medium supplemented with 10% FCS (Gibco, Invitrogen, Carlsbad, USA) on glass coverslips in 24-well plates until reaching approximately 50% confluence. The cells were treated with varying concentrations of isolated compounds dissolved in DMSO. Wells containing DMEM with DMSO served as the negative control. After 24 h cultivation, the cells were incubated with MitoTracker Red CMXRos (10 min) to label mitochondria, then fixed with 3.7% paraformaldehyde in PBS (20 min, room temperature), permeabilized with 0.1% Triton X-100 in PBS, and blocked with 1% BSA in PBS. The cells were then stained with Phalloidin-Alexa Fluor488 conjugate. All fluorescence reagents were purchased from Molecular Probes, Invitrogen, Carlsbad, CA, USA. Nuclei were stained with Fluoroshield DAPI (Sigma-Aldrich), and cells were examined using an IX71 microscope equipped with a DP70 camera and a 40× objective. Assays were performed at concentrations of 5, 25, 50, 100, and 125 μM.

[6] = tested on: Madin–Darby canine kidney (MDCK) epithelial cell line; assay: as above; assay type: cell-based; settings: Canis lupus familiaris, 24 h treatment, read-out: EC50 ± SEM MDCK
Procedure: as §4

[7] = tested on: T. b. gambiense LiTat 1.3; assay: Anti-trypanosomal activity, resazurin (AB assay), bloodstream form; assay type: cell-based, T. brucei gambiense; settings: Trypanosoma brucei, 72 h, axenic, 48 h + 24 h resazurin
Procedure: as §3

Structure (SMILES) | EC50 [1] [nM] | EC50 [2] [nM] | EC50 [3] [nM] | EC50 [4] [nM] | EC50 ([5]; Rat2, 24 h) [nM] | EC50 [6] [nM] | EC50 [7] [nM] | EC50 [5] [nM]
COc1cc(O)c2c(c1)C(=O)C1=C(C[C@@H](OC(C)=O)[C@@H](C)O1)C2=O [Compound 7, (2R,3R)-6-hydroxy-8-methoxy-2-methyl-5,10-dioxo-3,4,5,10-tetrahydro-2H-benzo[g]chromen-3-yl acetate] | 3600 | 2500 | 2400 | 900 | 6000 ± 300 | 5600 ± 1100 | 5700 | –
COc1cc(O)c2c(c1)C(=O)C1=C(C2=O)[C@@H](O)[C@@H](OC(C)=O)[C@@H](C)O1 [Compound 5, (2R,3R,4R)-4,6-dihydroxy-8-methoxy-2-methyl-5,10-dioxo-3,4,5,10-tetrahydro-2H-benzo[g]chromen-3-yl acetate] | 240 | 10 | 20 | 60 | 30 | 100 | 30 | –
COc1cc(O)c2c(c1)C(=O)C1=C(C2=O)[C@@H](OC(C)=O)[C@@H](O)[C@@H](C)O1 [Compound 1, (2R,3S,4R)-3,6-dihydroxy-8-methoxy-2-methyl-5,10-dioxo-3,4,5,10-tetrahydro-2H-benzo[g]chromen-4-yl acetate] | 220 | 10 | 20 | 60 | 100 | 100 | 40 | 60
COc1cc(O)c2c(c1)C(=O)C1=C(C2=O)[C@H](O)[C@@H](O)[C@@H](C)O1 (relative stereo) [Compound 3, (2R,3R,4S)-3,4,6-trihydroxy-8-methoxy-2-methyl-3,4-dihydro-2H-benzo[g]chromene-5,10-dione] | 8600 | 5600 | 5800 | 4300 | 5100 ± 700 | 4700 ± 600 | 4100 | –

— publication PMC12163684, “Gunacins: Novel Benzo[g]chromene Derivatives from the Fungus Exobasidium sp. and Their Potent Anti-Leishmania and Trypanosoma Activities” (ACS Omega, 2025)
